Values after ≈ are worked out from the molar mass of the structure shown.
Assays:
[1] = system: P. aeruginosa ATCC 27853 (APAE001); assay: MIC, CLSI broth microdilution; assay type: cell-based; details: Pseudomonas aeruginosa, ATCC27853, read-out: MIC APAE001, Table 1; APAE001 is ATCC27853
Protocol: (§1) Minimum inhibitory concentrations (MIC) were determined by reference Clinical and Laboratory Standards Institute (CLSI) broth microdilution methods per M7-A7 [2006]. Quality control ranges utilizing E. coli ATCC 25922, P. aeruginosa ATCC 27853 and S. aureus ATCC 29213, and interpretive criteria for comparator agents were as published in CLSI M100-S17 [2007]. Briefly, serial two-fold dilutions of the test compounds were prepared at 2× concentration in Mueller Hinton Broth. The compound dilutions were mixed in 96-well assay plates in a 1:1 ratio with bacterial inoculum. The inoculum was prepared by suspension of a colony from an agar plate that was prepared the previous day. Bacteria were suspended in sterile saline and added to each assay plate to obtain a final concentration of 5×10^5 CFU/mL. The plates were incubated at 35° C. for 20 hours in ambient air.

[2] = system: E. coli ATCC 25922 (AECO001); assay: MIC, CLSI broth microdilution; assay type: cell-based; details: Escherichia coli, ATCC25922, read-out: MIC AECO001, Table 1; AECO001 is ATCC25922
Protocol: as §1

SMILES | MIC [1] [µg/mL] | MIC [2] [µg/mL]
CN[C@@H]1[C@@H](O)[C@@H](O[C@@H]2[C@@H](O)[C@H](O[C@H]3OC(CNCCO)=CC[C@H]3N)[C@@H](N)C[C@H]2NC(=O)C2(O)CC(N)C2)OC[C@]1(C)O (stereo partly shown) [Example 62] | 1 to 16 (≈ 1.65 to 26.5 µM) | < 1
CN[C@@H]1[C@@H](O)[C@@H](O[C@@H]2[C@@H](O)[C@H](O[C@H]3OC(CNC[C@H]4C[C@H](N)C4)=CC[C@H]3N)[C@@H](N)C[C@H]2NC(=O)C2(O)CNC2)OC[C@]1(C)O [Example 63] | 1 to 16 (≈ 1.59 to 25.4 µM) | < 1
CN[C@@H]1[C@@H](O)[C@@H](O[C@@H]2[C@@H](O)[C@H](O[C@H]3OC(CNC[C@@H]4C[C@H](N)CN4)=CC[C@H]3N)[C@@H](N)C[C@H]2NC(=O)[C@@H](O)CN)OC[C@]1(C)O [Example 65, 6′-(Methyl-4(S)-amino-pyrrolidin-2(S)-yl)-1-(3-amino-2(S)-hydroxy-propionyl)-sisomicin] | 1 to 16 (≈ 1.58 to 25.3 µM) | 1 to 16 (≈ 1.58 to 25.3 µM)
CN[C@@H]1[C@@H](O)[C@@H](O[C@@H]2[C@@H](O)[C@H](O[C@H]3OC(CNCC4(CN)CC4)=CC[C@H]3N)[C@@H](N)C[C@H]2NC(=O)[C@@H](O)CN)OC[C@]1(C)O [Example 66, 6′-(Methyl-1-aminomethyl-cyclopropyl)-1-(3-amino-2(S)-hydroxy-propionyl)-sisomicin] | 1 to 16 (≈ 1.62 to 25.9 µM) | < 1
CN[C@@H]1[C@@H](O)[C@@H](O[C@@H]2[C@@H](O)[C@H](O[C@H]3OC(CNCC4(N)CC4)=CC[C@H]3N)[C@@H](N)C[C@H]2NC(=O)[C@@H](O)CN)OC[C@]1(C)O [Example 67, 6′-(Methyl-1-Amino-cyclopropyl)-1-(3-amino-2(S)-hydroxy-propionyl)-sisomicin] | 1 to 16 (≈ 1.66 to 26.5 µM) | 1 to 16 (≈ 1.66 to 26.5 µM)
CN[C@@H]1[C@@H](O)[C@@H](O[C@@H]2[C@@H](O)[C@H](O[C@H]3OC(CNCC(O)CCN)=CC[C@H]3N)[C@@H](N)C[C@H]2NC(=O)[C@@H](O)CN)OC[C@]1(C)O (stereo partly drawn) [Example 68, 6′-(2-Hydroxy-4-amino-butyl)-1-(3-amino-2(S)-hydroxy-propionyl)-sisomicin] | 1 to 16 (≈ 1.61 to 25.7 µM) | 1 to 16 (≈ 1.61 to 25.7 µM)
CN[C@@H]1[C@@H](O)[C@@H](O[C@@H]2[C@@H](O)[C@H](O[C@H]3OC(CNC[C@H]4C[C@@H](N)[C@@H](O)C4)=CC[C@H]3N)[C@@H](N)C[C@H]2NC(=O)[C@@H](O)CN)OC[C@]1(C)O [Example 69, 6′-(Methyl-1(R)-amino-2(S)-hydroxy-cyclopent-4(S)-yl)-1-(3-amino-2(S)-hydroxy-propionyl)-sisomicin] | 1 to 16 (≈ 1.54 to 24.7 µM) | < 1
CN[C@@H]1[C@@H](O)[C@@H](O[C@@H]2[C@@H](O)[C@H](O[C@H]3OC(CNCCC4(O)CNC4)=CC[C@H]3N)[C@@H](N)C[C@H]2NC(=O)[C@@H](O)CN)OC[C@]1(C)O [Example 70, 6′-(Ethyl-2-(3-hydroxy-azetidin-3-yl))-1-(3-amino-2(S)-hydroxy-propionyl)-sisomicin] | > 16 | 1 to 16 (≈ 1.58 to 25.2 µM)
CN[C@@H]1[C@@H](O)[C@@H](O[C@@H]2[C@@H](O)[C@H](O[C@H]3OC(CNCC4CC4)=CC[C@H]3N)[C@@H](N)C[C@H]2NC(=O)C(O)C2CNC2)OC[C@]1(C)O (stereo partly shown) [Example 71, 6′-Methylcyclopropyl-1-(2-(azetidin-3-yl)-2-hydroxy-acetyl)-sisomicin] | > 16 | 1 to 16 (≈ 1.63 to 26 µM)
CN[C@@H]1[C@@H](O)[C@@H](O[C@@H]2[C@@H](O)[C@H](O[C@H]3OC(CNC[C@H]4C[C@H](N)C4)=CC[C@H]3N)[C@@H](N)C[C@H]2NC(=O)C(O)C2CNC2)OC[C@]1(C)O (stereo partly drawn) [Example 72, 6′-(Methyl-trans-3-amino-cyclobutyl)-1-(2-(azetidin-3-yl)-2-hydroxy-acetyl)-sisomicin] | 1 to 16 (≈ 1.55 to 24.9 µM) | 1 to 16 (≈ 1.55 to 24.9 µM)
CN[C@@H]1[C@@H](O)[C@@H](O[C@@H]2[C@@H](O)[C@H](O[C@H]3OC(CNCC4CNC4)=CC[C@H]3N)[C@@H](N)C[C@H]2NC(=O)[C@@H](O)CN)OC[C@]1(C)O [Example 73, 6′-(Methyl-azetidin-3-yl)-1-(3-amino-2(S)-hydroxy-propionyl)-sisomicin] | 1 to 16 (≈ 1.66 to 26.5 µM) | 1 to 16 (≈ 1.66 to 26.5 µM)
CN[C@@H]1[C@@H](O)[C@@H](O[C@@H]2[C@@H](O)[C@H](O[C@H]3OC(CNCC4(CN)CC4)=CC[C@H]3N)[C@@H](N)C[C@H]2NC(=O)C(O)C2CNC2)OC[C@]1(C)O (stereo partly shown) [Example 74, 6′-(Methyl-1-aminomethyl-cyclopropyl)-1-(2-(azetidin-3-yl)-2-hydroxy-acetyl)-sisomicin] | > 16 | 1 to 16 (≈ 1.55 to 24.9 µM)
CN[C@@H]1[C@@H](O)[C@@H](O[C@@H]2[C@@H](O)[C@H](O[C@H]3OC(CNCCO)=CC[C@H]3N)[C@@H](N)C[C@H]2NC(=O)C(O)C2CNC2)OC[C@]1(C)O (stereo partly shown) [Example 75, 6′-(2-Hydroxy-ethyl)-1-(2-(azetidin-3-yl)-2-hydroxy-acetyl)-sisomicin] | > 16 | 1 to 16 (≈ 1.65 to 26.5 µM)
CN[C@@H]1[C@@H](O)[C@@H](O[C@@H]2[C@@H](O)[C@H](O[C@H]3OC(CNCCCN)=CC[C@H]3N)[C@@H](N)C[C@H]2NC(=O)C(O)C2CNC2)OC[C@]1(C)O (stereo partly shown) [Example 76, 6′-(3-Amino-propyl)-1-(2-(azetidin-3-yl)-2-hydroxy-acetyl)-sisomicin] | 1 to 16 (≈ 1.62 to 25.9 µM) | 1 to 16 (≈ 1.62 to 25.9 µM)
CN[C@@H]1[C@@H](O)[C@@H](O[C@@H]2[C@@H](O)[C@H](O[C@H]3OC(CNCC(O)CCN)=CC[C@H]3N)[C@@H](N)C[C@H]2NC(=O)C(O)C2CNC2)OC[C@]1(C)O (stereo partly shown) [Example 77, 6′-(2-Hydroxy-4-amino-butyl)-1-(2-(azetidin-3-yl)-2-hydroxy-acetyl)-sisomicin] | 1 to 16 (≈ 1.54 to 24.7 µM) | 1 to 16 (≈ 1.54 to 24.7 µM)
CN[C@@H]1[C@@H](O)[C@@H](O[C@@H]2[C@@H](O)[C@H](O[C@H]3OC(CNC[C@H]4C[C@H](N)C4)=CC[C@H]3N)[C@@H](N)C[C@H]2NC(=O)C2(O)CCNC2)OC[C@]1(C)O (stereo partly drawn) [Example 78, 6′-(Methyl-trans-3-amino-cyclobutyl)-1-(3-hydroxy-pyrrolidin-3-yl-acetyl)-sisomicin] | 1 to 16 (≈ 1.55 to 24.9 µM) | < 1
CN[C@@H]1[C@@H](O)[C@@H](O[C@@H]2[C@@H](O)[C@H](O[C@H]3OC(CNCC4(CN)CC4)=CC[C@H]3N)[C@@H](N)C[C@H]2NC(=O)C2(O)CCNC2)OC[C@]1(C)O (stereo partly shown) [Example 79] | > 16 | 1 to 16 (≈ 1.55 to 24.9 µM)
CN[C@@H]1[C@@H](O)[C@@H](O[C@@H]2[C@@H](O)[C@H](O[C@H]3OC(CNCCCC(O)CN)=CC[C@H]3N)[C@@H](N)C[C@H]2NC(=O)[C@@H](O)CN)OC[C@]1(C)O (stereo partly drawn) [Example 80, 6′-(4-Hydroxy-5-amino-pentyl)-1-(3-amino-2(S)-hydroxy-propionyl)-sisomicin] | < 1 | < 1
CN[C@@H]1[C@@H](O)[C@@H](O[C@@H]2[C@@H](O)[C@H](O[C@H]3OC(CNCCNC4CNC4)=CC[C@H]3N)[C@@H](N)C[C@H]2NC(=O)[C@@H](O)CN)OC[C@]1(C)O [Example 81, 6′-(N-(Azetidin-3-yl)-2-amino-ethyl)-1-(3-amino-2(S)-hydroxy-propionyl)-sisomicin] | > 16 | 1 to 16 (≈ 1.58 to 25.3 µM)
CN[C@@H]1[C@@H](O)[C@@H](O[C@@H]2[C@@H](O)[C@H](O[C@H]3OC(CNCC(O)CN)=CC[C@H]3N)[C@@H](N)C[C@H]2NC(=O)C(O)C2CNC2)OC[C@]1(C)O (stereo partly shown) [Example 82, 6′-(2-Hydroxy-3-amino-propyl)-1-(2-(azetidin-3-yl)-2-hydroxy-acetyl)-sisomicin] | > 16 | 1 to 16 (≈ 1.58 to 25.2 µM)

Reference: patent US20120214760A1, “TREATMENT OF URINARY TRACT INFECTIONS WITH ANTIBACTERIAL AMINOGLYCOSIDE COMPOUNDS” (Achaogen, Inc., priority 2009, published 2012)
